Assay results: ChEMBL document CHEMBL1177707 (J Med Chem, 2010)

Tests used:
[1] = target: Inosine-5'-monophosphate dehydrogenase 2 (Homo sapiens, UniProt P12268); experiment: Inhibition of human IMPDH2
[2] = target: Inosine-5'-monophosphate dehydrogenase 1 (Homo sapiens, UniProt P20839); experiment: Inhibition of human IMPDH1
[3] = Inhibition of N-terminal His-tagged Mycobacterium tuberculosis H37Rv IMPDH; details: read-out: Ki(app)

Sequence of Inosine-5'-monophosphate dehydrogenase 1 (P20839 whole entry): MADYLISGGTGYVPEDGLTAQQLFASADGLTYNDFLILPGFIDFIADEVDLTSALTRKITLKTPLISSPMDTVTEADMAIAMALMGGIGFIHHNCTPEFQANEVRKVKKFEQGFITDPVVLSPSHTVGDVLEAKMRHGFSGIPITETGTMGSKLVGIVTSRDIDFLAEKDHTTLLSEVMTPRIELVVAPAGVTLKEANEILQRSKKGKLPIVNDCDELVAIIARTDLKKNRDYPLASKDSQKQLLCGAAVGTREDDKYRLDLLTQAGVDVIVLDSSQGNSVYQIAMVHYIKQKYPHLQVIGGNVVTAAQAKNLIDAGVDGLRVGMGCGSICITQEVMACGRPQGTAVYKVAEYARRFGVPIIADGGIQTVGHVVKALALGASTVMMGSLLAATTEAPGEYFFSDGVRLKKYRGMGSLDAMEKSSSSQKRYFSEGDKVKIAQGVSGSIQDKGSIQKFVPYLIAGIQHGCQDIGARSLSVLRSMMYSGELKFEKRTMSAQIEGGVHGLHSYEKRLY

| Compound | Ki [3] [nM] | Ki ([2]; read-out: Ki) [nM] | also measured |
| --- | --- | --- | --- |
| COc1c(C)c2c(c(O)c1C/C=C(\C)COP(=O)(O)CP(=O)(O)OC[C@H]1O[C@@H](n3cnc4c(N)ncnc43)[C@H](O)[C@@H]1O)C(=O)OC2 | > 100000 |  | Ki ([1]; read-out: Ki(app)): 380 nM; Ki ([2]; read-out: Ki(app)): 520 nM |
| COc1c(C)c2c(c(O)c1CCNCc1cn(C[C@H]3O[C@@H](n4cnc5c(N)ncnc54)[C@H](O)[C@@H]3O)nn1)C(=O)OC2 | > 100000 | 14000 | Ki ([1]; read-out: Ki): 2200 nM |
| COc1c(C)c2c(c(O)c1CCn1cc(COC[C@H]3O[C@@H](n4cnc5c(N)ncnc54)[C@H](O)[C@@H]3O)nn1)C(=O)OC2 | > 100000 | 1500 | Ki ([1]; read-out: Ki): 200 nM |
| COc1c(C)c2c(c(O)c1C/C=C(\C)Cn1cc(COC[C@H]3O[C@@H](n4cnc5c(N)ncnc54)[C@H](O)[C@@H]3O)nn1)C(=O)OC2 |  | 70 |  |
| C#Cc1nc(N)c2ncn([C@@H]3O[C@H](CNS(=O)(=O)CS(=O)(=O)NCCc4c(O)c5c(c(C)c4OC)COC5=O)[C@@H](O)[C@H]3O)c2n1 | > 100000 |  |  |
| COc1c(C)c2c(c(O)c1CCOP(=O)(O)CP(=O)(O)OC[C@H]1O[C@@H](n3cnc4c(N)nc(-c5ccccc5)nc43)[C@H](O)[C@@H]1O)C(=O)OC2 | > 100000 |  |  |
| CCc1nc(N)c2ncn([C@@H]3O[C@H](CNS(=O)(=O)CS(=O)(=O)NCCc4c(O)c5c(c(C)c4OC)COC5=O)[C@@H](O)[C@H]3O)c2n1 | > 100000 |  |  |
| COc1c(C)c2c(c(O)c1CCNS(=O)(=O)CS(=O)(=O)NC[C@H]1O[C@@H](n3cnc4c(N)nc(-c5ccccc5)nc43)[C@H](O)[C@@H]1O)C(=O)OC2 | > 100000 |  |  |
| COc1c(C)c2c(c(O)c1C/C=C(\C)CCC(=O)O)C(=O)OC2 [MYCOPHENOLIC ACID] | 62000 |  |  |
